These results are taken from publication PMC12491243, “Rational design of indoleamine 2,3-dioxygenase 1 (IDO1) inhibitors featuring 1,2,3-triazole derivatives with enhanced anti-inflammatory and analgesic efficacy” (Frontiers in Pharmacology, 2025).

One may read the IC50 as the concentration that inhibits the measured activity by half.

SMILES strings stand for the structures. Like-named read-outs stand apart in the source and are kept apart here.

For data set [1], the target named is T1, IDO1 (Homo sapiens, UniProt P14902).
T1 construct: endogenous in cells; host or cells: HeLa cells stimulated with 100 ng/mL human IFN-γ
In words: HeLa cell-based IDO1 inhibition assay. The following applies: HeLa cells, 100 ng/mL human IFN-γ, 18 h, kynurenine absorbance at 480 nm. The method, then: To evaluate the IDO1 inhibitory activity of the newly synthesized derivatives, HeLa cells with high IDO1 expression were used as the experimental model. […] To perform the HeLa cell-based IDO1 inhibition assay, HeLa cells were seeded at a density of 50,000 cells per well in a 96-well microplate containing 100 μL of DMEM supplemented with 10% fetal bovine serum and 1% penicillin-streptomycin. The cells were incubated overnight at 37 °C in a humidified atmosphere with 5% CO2. The following day, 100 μL of growth medium containing diluted inhibitors and 100 ng/mL human IFN-γ was added to each well. The cells were then incubated at 37 °C in a CO2 incubator for 18 h. […] The plate was incubated at 50 °C for 30 min and then centrifuged at 2,500 rpm for 10 min to remove any sediment. Next, 100 μL of the supernatant was transferred to a separate 96-well plate and mixed with 100 μL of 2% (w/v) 4-(dimethylamino)benzaldehyde in acetic acid. After a 10-min incubation at room temperature, the absorbance of the resulting yellow color, indicative of kynurenine, was measured at 480 nm using a microplate reader.

The conditions of data set [2]: 2019, cited from earlier work.
The next data set relates to IDO1 in MDA-MB-231 cells. The arrangement: method as in Panda et al., 2019. The following applies: ref Panda et al., 2019; cited from earlier work.
For data set [3], the system named is IDO1. The note with it: cited from earlier work.
For data set [4], the system named is Lewis lung carcinoma (LL2). The arrangement: method as in Pan et al., 2020. The following applies: ref Pan et al., 2020, cited from earlier work.
Data set [5] relates to hepatocellular carcinoma (Hepa1-6). More on the design: method as in Pan et al., 2020. The note with it: hepatocellular carcinoma (Hepa1-6) model; ref Pan et al., 2020; cited from earlier work.
The subject of the next data set is dopamine D2 receptor. More on the design: method as in earlier work. The note with it: ref Crosignani et al., 2017; González-Gutiérrez et al., 2025; Mendez-Rojas et al., 2018; cited from earlier work.
Another data set deals with 5-HT reuptake. More on the design: method as in earlier work. The note with it: ref Crosignani et al., 2017; González-Gutiérrez et al., 2025; Mendez-Rojas et al., 2018; cited from earlier work.
Data set [6] deals with IDO1. The note with it: read-out: IC50 in enzymatic assays, cited from earlier work.
In a further data set the test system is TDO. More on the design: method as in Rohrig et al., 2012; Rohrig et al., 2019. The note with it: ref Rohrig et al., 2012, 2019; cited from earlier work.
A further data set concerns mouse IDO1. More on the design: method as in Rohrig et al., 2012; Rohrig et al., 2019. The note with it: ref Rohrig et al., 2012, 2019, read-out: IC50 in cellular assays, mouse IDO1; cited from earlier work.
A further data set deals with human IDO1. More on the design: method as in Rohrig et al., 2012; Rohrig et al., 2019. The following applies: ref Rohrig et al., 2012, 2019, read-out: IC50 in cellular assays, human IDO1; cited from earlier work.
Data set [7] deals with IDO1. The arrangement: method as in Alexandre et al., 2018. The following applies: ref Alexandre et al., 2018; read-out: IC50 in cellular assays; cited from earlier work.
The test system of the next data set is kynurenine production. The arrangement: method as in Wang et al., 2019. The following applies: treated cells, low concentrations; ref Wang et al., 2019; cited from earlier work.

T1 sequence (P14902 whole entry): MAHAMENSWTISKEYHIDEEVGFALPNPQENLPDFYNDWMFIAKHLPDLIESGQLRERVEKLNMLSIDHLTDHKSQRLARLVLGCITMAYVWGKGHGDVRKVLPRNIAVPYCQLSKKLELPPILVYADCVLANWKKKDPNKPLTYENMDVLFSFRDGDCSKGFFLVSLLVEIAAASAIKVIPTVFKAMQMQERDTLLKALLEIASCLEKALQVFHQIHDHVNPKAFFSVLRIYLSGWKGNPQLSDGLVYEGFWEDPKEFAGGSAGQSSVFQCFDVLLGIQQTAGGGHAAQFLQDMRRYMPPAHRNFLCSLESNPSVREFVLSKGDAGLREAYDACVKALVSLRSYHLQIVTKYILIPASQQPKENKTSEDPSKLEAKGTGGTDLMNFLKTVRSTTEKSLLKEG

Regarding `O=C1COc2ccc(NC(=O)c3cccc(-c4cn(Cc5cc(Cl)ccc5F)nn4)c3)cc2N1` [Compound 14h], the midpoint of inhibition at IDO1 [1], the IC50, lay at 9.98 µM.

For the compound `O=C1COc2ccc(NC(=O)c3cccc(-c4cn(Cc5cccc(Cl)c5)nn4)c3)cc2N1` [Compound 14g], the midpoint of inhibition against IDO1 [1], the IC50, lay at 10.1 µM.

Regarding `O=C1COc2ccc(NC(=O)c3cccc(-c4cn(Cc5ccc(F)c(Cl)c5)nn4)c3)cc2N1` [Compound 14f], the IC50 against IDO1 [1] amounted to 8.02 µM.

The compound `O=C1COc2ccc(NC(=O)c3cccc(-c4cn(Cc5ccc(Br)cc5)nn4)c3)cc2N1` [Compound 14a] had a half-inhibitory concentration (IC50) on IDO1 [1] of 11.2 µM.

Consider `Cc1cc(C)cc(Cn2cc(-c3cccc(C(=O)Nc4ccc5c(c4)NC(=O)CO5)c3)nn2)c1` [Compound 14b], for which, at IDO1 [1], the IC50 was more than 30 µM.

As to `N#Cc1ccc(F)cc1Cn1cc(-c2cccc(C(=O)Nc3ccc4c(c3)NC(=O)CO4)c2)nn1` [Compound 14d], the IC50 on IDO1 [1] was more than 30 µM.

`NS(=O)(=O)NCCNC(=O)c1n[nH]nc1-c1ccc(F)c(F)c1` [Compound 6]: the cytotoxicity result in [2] (ref Panda et al.) was “negligible cytotoxicity”. In addition, in the data set with IDO1 in MDA-MB-231 cells, the “IDO1 inhibition in MDA-MB-231 cells” value is “strong IDO1 inhibition”.

At IDO1 [1], `O=C1COc2ccc(NC(=O)c3cccc(-c4cn(Cc5cc(F)c(F)c(F)c5)nn4)c3)cc2N1` [Compound 14c] came in with an IC50 of more than 30 µM.

For the compound `O=C1c2cc(F)ccc2C(=O)c2c1nnn2-c1ccc(F)c(Cl)c1` [Compound 2], in the data set with IDO1 [3] (ref Pan et al., 2020, read-out: IDO1 inhibition IC50), the half-inhibitory concentration (IC50) is 0.005 µM. In addition, the “toxicity in vivo models” value in [4] (LL2 and Hepa1-6 in vivo models) is listed as “minimal toxicity”. For the same compound, the “anti-tumor activity in vivo” value in data set [4] (Lewis lung carcinoma (LL2) model) and in [5] was “significant anti-tumor activity” in each case.

Consider `CC(CCN1CCN(c2cccc3c2OCC(=O)N3)CC1)c1c[nH]c2ccc(F)cc12` (stereo not drawn) [Compound 11], for which, in the data set on dopamine D2 receptor, the “dopamine D2 receptor inhibition” value is given as “potent”. The “activity in inhibiting 5-HT reuptake” value in the data set with 5-HT reuptake is listed as “high activity”.

On to `Oc1ccc(Cl)cc1-c1c[nH]nn1` [Compound 3], for which the concentration for half-maximal inhibition (IC50) in the data set on IDO1 [6] (ref Rohrig et al., 2012, Rohrig et al., 2019) was 0.33 µM; with mouse IDO1, 0.002 µM; in the data set with human IDO1, 0.08 µM. Also, the “activity against TDO” value in the data set on TDO is given as “no activity”. Besides, the cytotoxicity entry in [2] (cellular assays, ref Rohrig et al., 2012, Rohrig et al.) was “minimal cytotoxicity”.

`O=C1COc2ccc(NC(=O)c3cccc(-c4cn(Cc5ccccc5F)nn4)c3)cc2N1` [Compound 14j]: the half-maximal inhibitory concentration (IC50) against IDO1 [1] is more than 30 µM.

For `Clc1ccc(Nc2c[nH]nn2)cc1` [Compound 4], the concentration for half-maximal inhibition (IC50) in the data set with IDO1 [6] (ref Alexandre et al., 2018) was 11.3 µM; in the data set with IDO1 [7], 0.023 µM.

`O=C1COc2ccc(NC(=O)c3cccc(-c4cn(Cc5ccc(F)cc5)nn4)c3)cc2N1` [Compound 14i] had an IC50 against IDO1 [1] of more than 30 µM.

As for `COc1cccc2c1C(=O)C1=C(C[C@H](Cn3cc(-c4ccccc4)nn3)O[C@@H]1C)C2=O` [Compound 5], in the data set on IDO1 [3] (ref Wang et al., 2019, read-out: potency against IDO1, IC50), the IC50 was 6 µM. In addition, the cytotoxicity entry in data set [2] (ref Wang et al.) is listed as “minimal cytotoxicity”. Also, the “reduction of kynurenine production” value in the data set with kynurenine production is listed as “over 60%”.
